This note sets out measurements from publication PMC9698716, “From Serendipity to Rational Identification of the 5,6,7,8-Tetrahydrobenzo[4,5]thieno[2,3-d]pyrimidin-4(3H)-one Core as a New Chemotype of AKT1 Inhibitors for Acute Myeloid Leukemia” (Pharmaceutics, 2022).

The target of the experiment is T1, AKT1 (Homo sapiens, UniProt P31749).
T1 construct: purchased Kinase Logistics, Meyn, Germany #Aps 01-101
Nature of the experiment: AKT1 enzymatic inhibition assay. In kind it is biochemical. As to the method: The studied compounds, including the standard inhibitor Staurosporine (Thermo-Fisher , Madrid, Spain, Invitrogen BP2541), were incubated with 3 nM AKT1 (#Aps 01-101; Kinase Logistics, Meyn, Germany) and 1.5 μM Profiler Pro peptide 6 (#760350; Perkin Elmer, Tres Cantos, Madrid, Spain) in the presence of different concentrations of Adenosine 5′triphosphate disodium salt, ATP (#A2383; Sigma Aldrich, Madrid, Spain) in a 384-well Microplate (#781076; Greiner, San Sebastián de los Reyes, Madrid, Spain). The reaction rate was calculated from kinetic measurements carried out measured in a Caliper EzReader LabChip 3000 (Caliper, Hopkinton, MA, USA) reader with samples taken each 10 min for a total time of 60 min. The percentage of substrate conversion rate was plotted versus the ATP concentration. The data was analyzed by non-linear fitting with GraphPad Prism by employing the Michaelis–Menten equation. The buffer assay used in the inhibition hAKT1 assay is: Hepes 100 mM, DMSO 4%, Brij 0.003%, Tween 20 0.004%, MgCl2 10 mM, with a pH = 7.5.
The Ki values were calculated by employing the GraphPad Prism equations.

The term IC50 denotes the concentration needed to halve the response being measured. A higher IC50 goes with weaker potency in that assay. Broadly, the inhibition is the change of the read-out against control, counted positive when it falls. As usually defined, the Ki is a measure of affinity in units of concentration, obtained from inhibition or displacement.

T1 sequence (P31749 whole entry): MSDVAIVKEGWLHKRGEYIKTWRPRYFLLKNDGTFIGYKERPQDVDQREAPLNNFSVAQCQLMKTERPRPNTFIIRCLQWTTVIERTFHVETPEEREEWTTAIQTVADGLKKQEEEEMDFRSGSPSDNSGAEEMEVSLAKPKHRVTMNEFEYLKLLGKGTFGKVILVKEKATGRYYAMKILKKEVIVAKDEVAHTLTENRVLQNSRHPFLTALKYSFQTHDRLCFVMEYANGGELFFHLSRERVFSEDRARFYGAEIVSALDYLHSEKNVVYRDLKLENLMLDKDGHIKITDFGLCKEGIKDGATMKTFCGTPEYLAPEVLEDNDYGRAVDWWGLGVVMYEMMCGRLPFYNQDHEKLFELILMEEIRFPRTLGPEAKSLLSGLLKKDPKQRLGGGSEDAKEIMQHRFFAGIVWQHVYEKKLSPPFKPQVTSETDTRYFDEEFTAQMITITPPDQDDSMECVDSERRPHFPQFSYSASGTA

Take `O=c1[nH]c(-c2ccc(O)c(O)c2)nc2sc3c(c12)CCCC3` [T126]: the IC50 is 1.99 ± 0.11 µM. For the same compound, for the setting “10 μM compound, read-out: %inh (percentage of inhibition of AKT1 activity)”, the inhibition at 10 µM amounted to 87%. In addition, the Ki (read-out: Ki (AKT1 inhibition constant)) amounted to 0.41 µM.
